Tests used:
Format in all cases: biochemical
elastase = test: Activity of the elastase enzyme
Protocol: (§1) The anti-aging effect of the composition of the first aspect was determined by the methods that measure the activity of the elastase enzyme and the activity of the metalloproteases (MMP) enzyme.

MMP 1 = target: T1, MMP 1 (Homo sapiens, UniProt P03956); test: Activity of the metalloproteases (MMP) enzyme
T1 sequence (P03956 100-469): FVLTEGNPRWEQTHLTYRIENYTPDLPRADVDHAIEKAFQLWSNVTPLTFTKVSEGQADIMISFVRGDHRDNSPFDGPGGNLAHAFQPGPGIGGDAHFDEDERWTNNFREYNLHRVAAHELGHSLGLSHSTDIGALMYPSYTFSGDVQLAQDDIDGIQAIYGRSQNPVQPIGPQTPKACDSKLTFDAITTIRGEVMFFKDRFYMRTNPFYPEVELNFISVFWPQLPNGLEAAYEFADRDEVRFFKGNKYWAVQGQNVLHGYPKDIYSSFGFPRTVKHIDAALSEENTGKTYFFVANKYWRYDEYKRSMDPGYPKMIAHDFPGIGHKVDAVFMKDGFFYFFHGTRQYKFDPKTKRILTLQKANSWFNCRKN
Protocol: as §1

MMP 12 = MMP 12 (Homo sapiens, UniProt P39900); test: Activity of the metalloproteases (MMP) enzyme
Protocol: as §1

MMP 3 = MMP 3 (Homo sapiens, UniProt P08254); test: Activity of the metalloproteases (MMP) enzyme
Protocol: as §1

Chain of MMP 3 (P08254 100-477): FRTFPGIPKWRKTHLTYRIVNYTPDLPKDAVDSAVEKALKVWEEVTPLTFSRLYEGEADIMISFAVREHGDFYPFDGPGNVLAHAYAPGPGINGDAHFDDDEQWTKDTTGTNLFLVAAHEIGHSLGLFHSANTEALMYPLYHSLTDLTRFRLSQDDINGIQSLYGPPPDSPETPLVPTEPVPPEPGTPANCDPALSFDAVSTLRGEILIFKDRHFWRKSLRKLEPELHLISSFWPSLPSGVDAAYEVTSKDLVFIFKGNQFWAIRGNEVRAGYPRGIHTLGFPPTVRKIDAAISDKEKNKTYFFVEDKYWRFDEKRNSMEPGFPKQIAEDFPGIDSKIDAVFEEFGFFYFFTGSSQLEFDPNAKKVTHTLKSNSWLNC
Chain of MMP 12 (P39900 106-470): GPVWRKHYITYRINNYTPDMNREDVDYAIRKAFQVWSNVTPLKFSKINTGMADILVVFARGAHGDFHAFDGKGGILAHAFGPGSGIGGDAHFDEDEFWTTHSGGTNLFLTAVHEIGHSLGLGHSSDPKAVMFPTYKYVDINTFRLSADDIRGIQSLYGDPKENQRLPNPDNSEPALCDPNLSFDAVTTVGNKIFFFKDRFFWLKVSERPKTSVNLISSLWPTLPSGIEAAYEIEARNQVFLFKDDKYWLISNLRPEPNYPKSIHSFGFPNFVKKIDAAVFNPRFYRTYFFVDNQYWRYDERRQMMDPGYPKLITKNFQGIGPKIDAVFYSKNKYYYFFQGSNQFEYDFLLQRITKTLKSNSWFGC

In the case of Vitamin E, the “Inhibition of the activity of elastase” value (elastase) is reported as “do not present such result”, the “Inhibition of the activity of MMP 1” value (MMP 1) is reported as “do not present this result” and the “Inhibition of the activity of MMP 12” value (MMP 12) is reported as “do not present this result”. The “Inhibition of the activity of MMP 3” value (MMP 3) was “do not present this result”.
In the case of `O=C1O[C@H]([C@@H](O)CO)C(O)=C1O` [Vitamin C], the “Inhibition of the activity of elastase” value (elastase) is reported as “do not present such result”, the “Inhibition of the activity of MMP 1” value (MMP 1) is reported as “do not present this result” and the “Inhibition of the activity of MMP 12” value (MMP 12) is reported as “do not present this result”. For the same compound, the “Inhibition of the activity of MMP 3” value (MMP 3) was “do not present this result”.

From patent US20240277585A1, “COMPOSITION OF LIPID NANOPARTICLE CONTAINING VITIS VINIFERA EXTRACT, COSMETIC USES OF A COMPOSITION OF LIPID NANOPARTICLE CONTAINING VITIS VINIFERA EXTRACT, ANTIOXIDANT DERMOCOSMETIC PRODUCT AND FOR PREVENTING SKIN AGING AND SKIN CARE METHOD” (ACHÉ LABORATÓRIOS FARMACÊUTICOS S.A., priority 2021, published 2024)
